Experimental data taken from a compilation of properties of binary mixtures (doi:10.1016/j.molliq.2020.112489).

Assay: xn = mol fraction of the nth substance listed
Conditions: 101 kPa

SMILES: CC[n+]1ccn(C)c1.O=C([O-])C(F)(F)C(F)(F)C(F)(F)C(F)(F)F + O
- viscosity (298.15 K, x1 = 0.0264): 2.88 mPa·s
- viscosity (298.15 K, x1 = 0.0311): 3.36 mPa·s
- viscosity (298.15 K, x1 = 0.0364): 3.86 mPa·s
- viscosity (298.15 K, x1 = 0.0428): 4.62 mPa·s
- viscosity (298.15 K, x1 = 0.0496): 5.3 mPa·s
- viscosity (298.15 K, x1 = 0.0581): 5.96 mPa·s
- viscosity (298.15 K, x1 = 0.067): 6.84 mPa·s
- viscosity (298.15 K, x1 = 0.0727): 7.23 mPa·s
- viscosity (298.15 K, x1 = 0.0857): 8.38 mPa·s
- viscosity (298.15 K, x1 = 0.133): 12.96 mPa·s
- viscosity (298.15 K, x1 = 0.1458): 13.63 mPa·s
- viscosity (298.15 K, x1 = 0.1625): 14.99 mPa·s
- viscosity (298.15 K, x1 = 0.1788): 16.31 mPa·s
- viscosity (298.15 K, x1 = 0.201): 17.94 mPa·s
- viscosity (298.15 K, x1 = 0.262): 22.43 mPa·s
- viscosity (298.15 K, x1 = 0.3007): 25.2 mPa·s
- viscosity (298.15 K, x1 = 0.7012): 73.6 mPa·s
- viscosity (298.15 K, x1 = 1): 107.5 mPa·s
- viscosity (308.15 K, x1 = 0.0222): 2.016 mPa·s
- viscosity (308.15 K, x1 = 0.0264): 2.221 mPa·s
- viscosity (308.15 K, x1 = 0.0364): 2.91 mPa·s
- viscosity (308.15 K, x1 = 0.0496): 3.92 mPa·s
- viscosity (308.15 K, x1 = 0.0581): 4.37 mPa·s
- viscosity (308.15 K, x1 = 0.067): 4.93 mPa·s
- viscosity (308.15 K, x1 = 0.0727): 5.22 mPa·s
- viscosity (308.15 K, x1 = 0.1009): 7.34 mPa·s
- viscosity (308.15 K, x1 = 0.133): 9.04 mPa·s
- viscosity (308.15 K, x1 = 0.1625): 10.35 mPa·s
- viscosity (308.15 K, x1 = 0.1788): 11.24 mPa·s
- viscosity (308.15 K, x1 = 0.2367): 14.29 mPa·s
- viscosity (308.15 K, x1 = 0.4265): 24.3 mPa·s
- viscosity (308.15 K, x1 = 0.7012): 46.9 mPa·s
- viscosity (308.15 K, x1 = 1): 65.9 mPa·s
- viscosity (318.15 K, x1 = 0.0264): 1.773 mPa·s
- viscosity (318.15 K, x1 = 0.0311): 2.036 mPa·s
- viscosity (318.15 K, x1 = 0.0364): 2.271 mPa·s
- viscosity (318.15 K, x1 = 0.0428): 2.64 mPa·s
- viscosity (318.15 K, x1 = 0.0496): 3.01 mPa·s
- viscosity (318.15 K, x1 = 0.0581): 3.35 mPa·s
- viscosity (318.15 K, x1 = 0.067): 3.7 mPa·s
- viscosity (318.15 K, x1 = 0.0727): 3.93 mPa·s
- viscosity (318.15 K, x1 = 0.0857): 4.5 mPa·s
- viscosity (318.15 K, x1 = 0.1009): 5.4 mPa·s
- viscosity (318.15 K, x1 = 0.133): 6.58 mPa·s
- viscosity (318.15 K, x1 = 0.1788): 8.1 mPa·s
- viscosity (318.15 K, x1 = 0.201): 8.85 mPa·s
- viscosity (318.15 K, x1 = 0.2367): 10.22 mPa·s
- viscosity (318.15 K, x1 = 0.262): 10.88 mPa·s
- viscosity (318.15 K, x1 = 0.3007): 12.16 mPa·s
- viscosity (318.15 K, x1 = 0.4265): 17.06 mPa·s
- viscosity (318.15 K, x1 = 0.7012): 31.8 mPa·s
- viscosity (318.15 K, x1 = 1): 43.1 mPa·s

SMILES: Cn1cc[n+](CCO)c1.O=S(=O)([O-])C(F)(F)C(F)(F)C(F)(F)C(F)(F)F + O
- electrical conductivity (298.15 K, x1 = 0.0178): 4.26 S/m
- viscosity (298.15 K, x1 = 0.0178): 2.036 mPa·s
- electrical conductivity (298.15 K, x1 = 0.0195): 4.4 S/m
- viscosity (298.15 K, x1 = 0.0195): 2.133 mPa·s
- electrical conductivity (298.15 K, x1 = 0.0212): 4.52 S/m
- viscosity (298.15 K, x1 = 0.0212): 2.326 mPa·s
- electrical conductivity (298.15 K, x1 = 0.0253): 4.75 S/m
- viscosity (298.15 K, x1 = 0.0253): 2.66 mPa·s
- electrical conductivity (298.15 K, x1 = 0.0297): 4.91 S/m
- viscosity (298.15 K, x1 = 0.0297): 3.09 mPa·s
- electrical conductivity (298.15 K, x1 = 0.0321): 4.97 S/m
- viscosity (298.15 K, x1 = 0.0321): 3.3 mPa·s
- electrical conductivity (298.15 K, x1 = 0.0348): 5 S/m
- viscosity (298.15 K, x1 = 0.0348): 3.56 mPa·s
- electrical conductivity (298.15 K, x1 = 0.0376): 5.1 S/m
- viscosity (298.15 K, x1 = 0.0376): 3.7 mPa·s
- electrical conductivity (298.15 K, x1 = 0.0405): 5.1 S/m
- viscosity (298.15 K, x1 = 0.0405): 4.19 mPa·s
- electrical conductivity (298.15 K, x1 = 0.0438): 5.2 S/m
- viscosity (298.15 K, x1 = 0.0438): 4.43 mPa·s
- electrical conductivity (298.15 K, x1 = 0.0474): 5.2 S/m
- viscosity (298.15 K, x1 = 0.0474): 4.87 mPa·s
- electrical conductivity (298.15 K, x1 = 0.0551): 5.2 S/m
- viscosity (298.15 K, x1 = 0.0551): 5.75 mPa·s
- electrical conductivity (298.15 K, x1 = 0.0644): 5.1 S/m
- viscosity (298.15 K, x1 = 0.0644): 6.82 mPa·s
- electrical conductivity (298.15 K, x1 = 0.07): 5.1 S/m
- viscosity (298.15 K, x1 = 0.07): 7.66 mPa·s
- electrical conductivity (298.15 K, x1 = 0.0756): 5 S/m
- viscosity (298.15 K, x1 = 0.0756): 8.21 mPa·s
- electrical conductivity (298.15 K, x1 = 0.0824): 4.88 S/m
- viscosity (298.15 K, x1 = 0.0824): 9.23 mPa·s
- electrical conductivity (298.15 K, x1 = 0.0899): 4.73 S/m
- viscosity (298.15 K, x1 = 0.0899): 10.36 mPa·s
- electrical conductivity (298.15 K, x1 = 0.1075): 4.31 S/m
- viscosity (298.15 K, x1 = 0.1075): 12.91 mPa·s
- electrical conductivity (298.15 K, x1 = 0.1178): 4.05 S/m
- viscosity (298.15 K, x1 = 0.1178): 14.88 mPa·s
- electrical conductivity (298.15 K, x1 = 0.1302): 3.73 S/m
- viscosity (298.15 K, x1 = 0.1302): 16.91 mPa·s
- electrical conductivity (298.15 K, x1 = 0.1441): 3.39 S/m
- viscosity (298.15 K, x1 = 0.1441): 19.81 mPa·s
- electrical conductivity (298.15 K, x1 = 0.1621): 2.98 S/m
- viscosity (298.15 K, x1 = 0.1621): 23.25 mPa·s
- electrical conductivity (298.15 K, x1 = 0.2068): 2.13 S/m
- viscosity (298.15 K, x1 = 0.2068): 32.1 mPa·s
- electrical conductivity (298.15 K, x1 = 0.2329): 1.74 S/m
- viscosity (298.15 K, x1 = 0.2329): 38.8 mPa·s
- electrical conductivity (298.15 K, x1 = 0.2751): 1.26 S/m
- viscosity (298.15 K, x1 = 0.2751): 50.6 mPa·s
- electrical conductivity (298.15 K, x1 = 0.3277): 0.85 S/m
- viscosity (298.15 K, x1 = 0.3277): 63.8 mPa·s
- electrical conductivity (298.15 K, x1 = 0.3954): 0.52 S/m
- viscosity (298.15 K, x1 = 0.3954): 87.1 mPa·s
- electrical conductivity (298.15 K, x1 = 0.5075): 0.241 S/m
- viscosity (298.15 K, x1 = 0.5075): 133.7 mPa·s
- electrical conductivity (298.15 K, x1 = 1): 0.033 S/m
- viscosity (298.15 K, x1 = 1): 832 mPa·s
- viscosity (308.15 K, x1 = 0.0178): 1.632 mPa·s
- viscosity (308.15 K, x1 = 0.0195): 1.689 mPa·s
- viscosity (308.15 K, x1 = 0.0212): 1.847 mPa·s
- viscosity (308.15 K, x1 = 0.0232): 1.972 mPa·s
- viscosity (308.15 K, x1 = 0.0253): 2.104 mPa·s
- viscosity (308.15 K, x1 = 0.0274): 2.2 mPa·s
- viscosity (308.15 K, x1 = 0.0297): 2.42 mPa·s
- viscosity (308.15 K, x1 = 0.0321): 2.6 mPa·s
- viscosity (308.15 K, x1 = 0.0348): 2.78 mPa·s
- viscosity (308.15 K, x1 = 0.0376): 2.87 mPa·s
- viscosity (308.15 K, x1 = 0.0405): 3.25 mPa·s
- viscosity (308.15 K, x1 = 0.0474): 3.73 mPa·s
- viscosity (308.15 K, x1 = 0.0511): 4.07 mPa·s
- viscosity (308.15 K, x1 = 0.0551): 4.36 mPa·s
- viscosity (308.15 K, x1 = 0.0596): 4.76 mPa·s
- viscosity (308.15 K, x1 = 0.0824): 6.8 mPa·s
- viscosity (308.15 K, x1 = 0.0983): 8.34 mPa·s
- viscosity (308.15 K, x1 = 0.1075): 9.29 mPa·s
- viscosity (308.15 K, x1 = 0.1178): 10.63 mPa·s
- viscosity (308.15 K, x1 = 0.1621): 16.05 mPa·s
- viscosity (308.15 K, x1 = 0.1816): 18.72 mPa·s
- viscosity (308.15 K, x1 = 0.2329): 25.7 mPa·s
- viscosity (308.15 K, x1 = 0.2751): 32.8 mPa·s
- viscosity (308.15 K, x1 = 0.3277): 40.6 mPa·s
- viscosity (308.15 K, x1 = 0.5075): 79.6 mPa·s
- viscosity (308.15 K, x1 = 0.6777): 143.5 mPa·s
- viscosity (308.15 K, x1 = 1): 411 mPa·s
- viscosity (318.15 K, x1 = 0.0178): 1.344 mPa·s
- viscosity (318.15 K, x1 = 0.0195): 1.381 mPa·s
- viscosity (318.15 K, x1 = 0.0212): 1.517 mPa·s
- viscosity (318.15 K, x1 = 0.0253): 1.719 mPa·s
- viscosity (318.15 K, x1 = 0.0274): 1.77 mPa·s
- viscosity (318.15 K, x1 = 0.0297): 1.975 mPa·s
- viscosity (318.15 K, x1 = 0.0348): 2.227 mPa·s
- viscosity (318.15 K, x1 = 0.0376): 2.274 mPa·s
- viscosity (318.15 K, x1 = 0.0405): 2.58 mPa·s
- viscosity (318.15 K, x1 = 0.0474): 2.95 mPa·s
- viscosity (318.15 K, x1 = 0.0511): 3.2 mPa·s
- viscosity (318.15 K, x1 = 0.0551): 3.42 mPa·s
- viscosity (318.15 K, x1 = 0.0644): 3.98 mPa·s
- viscosity (318.15 K, x1 = 0.07): 4.42 mPa·s
- viscosity (318.15 K, x1 = 0.0756): 4.67 mPa·s
- viscosity (318.15 K, x1 = 0.0824): 5.16 mPa·s
- viscosity (318.15 K, x1 = 0.0899): 5.75 mPa·s
- viscosity (318.15 K, x1 = 0.1075): 6.93 mPa·s
- viscosity (318.15 K, x1 = 0.1178): 7.86 mPa·s
- viscosity (318.15 K, x1 = 0.1441): 10.06 mPa·s
- viscosity (318.15 K, x1 = 0.1621): 11.56 mPa·s
- viscosity (318.15 K, x1 = 0.1816): 13.38 mPa·s
- viscosity (318.15 K, x1 = 0.2068): 15.23 mPa·s
- viscosity (318.15 K, x1 = 0.2751): 22.44 mPa·s
- viscosity (318.15 K, x1 = 0.3277): 27.4 mPa·s
- viscosity (318.15 K, x1 = 0.3954): 35.4 mPa·s
- viscosity (318.15 K, x1 = 0.5075): 50.5 mPa·s
- viscosity (318.15 K, x1 = 0.6777): 86.8 mPa·s
- viscosity (318.15 K, x1 = 1): 224 mPa·s
